Assay results taken from patent US12268682B2, “Anticancer drug FL118 formulation for treatment of human cancer” (CANGET BIOTEKPHARMA, LLC, priority 2019, dated 2025).

Key:
UM9 cell line = assay: BLI-based cytotoxicity assay with CAR T-cells or CTL 3AB11 on UM9; type: cell-based, human
Source text: CD138-, BCMA- and CD38-specific CAR T-cells: All CAR T-cells with different specificities were generated with co-stimulatory domains 4-1BB, CD28, or CD28 supplemented with a separate 4-1BB ligand (28zBBL), with the technology as described previously (Kim J H, et al. PLoS One. 2011, 6:e18556; Drent E, et al. Clin Cancer Res. 2019, 25:4014-4025). CD138 CAR T-cells (nBT) were produced using single chain variable fragment (scFv) sequences of the published nBT062 monoclonal antibody (Ikeda H, et al. Clin Cancer Res. 2009, 15:4028-4037). BCMA CAR T-cells were produced using published scFv sequences derived from C11D5.3 monoclonal antibody (US2012/0082661 A1 (Shancer Z, et al. Antib Ther. 2018, 1:19-25) or from BCMA02 CAR (product name bb2121, WO 2016/094304 A2) (Raje N, et al. N Engl J Med. 2019, 380:1726-1737; Friedman K M, et al. Hum Gene Ther. 2018, 29:585-601). The generation and functional analysis of CD38 CAR T-cells with low (B1) or high (028) CD38-affinities has been described previously (Drent E, et al. Clin Cancer Res. 2019, 25:4014-4025; Drent E, et al. Mol Ther. 2017, 25:1946-1958). More detailed information on all CAR construct are listed in Table 1. CAR T-cells were tested 10-14 days after CAR transduction or frozen until testing. After thawing, CAR T-cells were cultured for 16 hours in 60 U/mL recombinant human IL-2 (R&D Systems)-containing culture medium (RPMI 1640 supplemented with heat-inactivated FBS (Sigma) and antibiotics), before using in experiments. Flow cytometry analysis, to determine the transduction efficiency and phenotypic profile of each CAR T-cell, was performed as previously described (Drent E, et al. Clin Cancer Res. 2019, 25:4014 4025; Drent E, et al. Mol Ther. 2017, 25:1946-1958) and illustrated in FIG. 10.
3AB11 was expanded using a feeder cell-cytokine mixture and cryopreserved until further use as described previously (Spaapen R, et al. Clin Cancer Res. 2007, 13:4009-4015).

[1] = tested on: pro-apoptotic signaling, cleavage of caspase-3 and PARP; assay: Western blotting of FL118-treated MM cell lines; type: cell-based, human
Procedure: Western blotting: Untreated or FL118 treated (16 h) MM cell lines were washed twice with ice-cold PBS. Cell pellets were then snap-frozen and stored at −80° C. until further use. Pellets were dissolved in Radioimmunoprecipitation (RIPA) lysis buffer, supplemented with protease inhibitor cocktail (Roche) and incubated on ice for 45 minutes. Lysates were centrifuged at 14000 g for 10 minutes at 4° C. and supernatant was collected. Protein concentrations were determined by a DC protein assays (Bio-Rad). Samples were separated on 4-20% Mini-protean TGX precast gels (Bio-Rad) and proteins were transferred to Immobilon-FL PVDF membrane (Merck Millipore). After 1 h blocking with Odyssey Block Buffer (LI-COR) at room temperature, membranes were incubated with primary antibodies over night at 4° C. (anti-Mcl-1, anti-survivin Santa Cruz; anti-XIAP, anti-Bcl-2, anti-PUMA, anti-p21 Waf/Cip1, anti-PARP, anti-caspase-3 Cell Signaling Technology; anti-p53 DAKO; anti-NOXA, anti-Actin Merck Millipore). Blots were visualized by Odyssey infrared imaging (LICOR Biosciences) using IRDye 680 Goat-anti-Rabbit (LI-COR Lincoln) and IRDye 800CW Goat-anti-Mouse IgG (LI-COR Lincoln) according to manufacturer's instructions. Band intensities were quantified using Odyssey software.

[2] = cited from earlier work
topoisomerase I (Top1) = topoisomerase I (Top1) (Homo sapiens, UniProt P11387); conditions: cited from earlier work
[3] = tested on: survivin, Mcl-1, XIAP and cIAP2; conditions: cited from earlier work
primary MM cells = assay: Flow cytometry-based ex vivo assay using BMMNCs from MM patients; type: cell-based, human
Procedure: Flow cytometry-based […] assays using BMMNCs: Cryopreserved BMMNCs derived from MM patients were incubated on a monolayer of 2×10^4 BMMSCs for 16 till 24 hours and subsequently treated with FL118 ([…]) and/or, melphalan (5-10 μM/L), bortezomib (2-3 nmol/L) for 48 hours. Concerning immunotherapy, treatment included FL118 (10 or 100 nM) and/or daratumumab, or CAR T-cells for 24 hours. BMMNC samples contained sufficient numbers of functional effector cells to induce antibody-mediated plasma cell lysis. At the end of treatment, after addition of flow-count fluorospheres (Beckman Coulter), adherent cells were detached with Accutase, blocked with human immunoglobulin (100 μg/mL, Sanquin), and stained for CD38, CD138, CD45 (Beckman Coulter) and live/dead cell marker (LIVE/DEAD Fixable Near-111; Life Technologies) to determine absolute numbers of viable MM cells using flow cytometry. The percentage lysis was then calculated using the following formula: % lysis cells=1−absolute number of viable CD138^+ CD38^+ CD45^dim MM cells in treated wells/mean absolute number of viable CD138^+ CD38^+ CD45^dim MM cells in untreated wells×100%.

[4] = BALE/cj mice; cited from earlier work
[5] = Storage and heat stability of FL118; type: physicochemical
[6] = primary BMMNC samples, 48 hours

Sequence of topoisomerase I (Top1) (P11387 whole entry, species assumed): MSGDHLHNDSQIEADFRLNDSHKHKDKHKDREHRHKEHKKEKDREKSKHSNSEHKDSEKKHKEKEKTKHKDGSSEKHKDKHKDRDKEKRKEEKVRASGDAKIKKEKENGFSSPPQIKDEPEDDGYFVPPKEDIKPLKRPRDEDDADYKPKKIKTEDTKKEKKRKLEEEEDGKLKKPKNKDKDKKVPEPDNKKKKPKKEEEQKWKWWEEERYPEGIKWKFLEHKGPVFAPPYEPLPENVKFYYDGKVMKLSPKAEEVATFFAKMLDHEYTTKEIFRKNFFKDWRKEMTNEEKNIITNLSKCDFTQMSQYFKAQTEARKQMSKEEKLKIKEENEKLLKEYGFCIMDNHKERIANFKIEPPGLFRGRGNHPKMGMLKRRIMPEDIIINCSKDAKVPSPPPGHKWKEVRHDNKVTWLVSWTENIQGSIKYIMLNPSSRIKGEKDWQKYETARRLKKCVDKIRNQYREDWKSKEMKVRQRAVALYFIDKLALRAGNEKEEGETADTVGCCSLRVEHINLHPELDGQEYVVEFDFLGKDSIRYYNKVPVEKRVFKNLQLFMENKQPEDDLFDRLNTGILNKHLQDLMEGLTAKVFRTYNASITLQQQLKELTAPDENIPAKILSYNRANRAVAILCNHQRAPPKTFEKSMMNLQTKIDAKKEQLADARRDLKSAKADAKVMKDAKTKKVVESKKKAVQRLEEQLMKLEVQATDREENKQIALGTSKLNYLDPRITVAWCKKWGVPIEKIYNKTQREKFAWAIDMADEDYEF

## CC[C@@]1(O)C(=O)OCc2c1cc1n(c2=O)Cc2cc3cc4c(cc3nc2-1)OCO4 [FL118]
UM9 cell line; 24 hours
  BMMSC protective effect against CTL 3AB11 lysis: completely abrogated
UM9 cell line; Chou-Talalay
  combination effect with CTL 3AB11: synergistic fashion
UM9 cell line; Chou-Talalay, especially in the presence of BMMSCs
  combination index (CI) values, FL118 and CAR T-cells: below 1
UM9 cell line; combined with CAR T-cells, even at doses as low as 3 nM
  BMMSC-mediated protection against CAR T-cells: effectively modulated
UM9 cell line; regardless of the presence of BMMSCs, 24 hours
  lysis of MM-cells by FL118 alone: dose-dependent lysis
[1]; high- and intermediate-susceptible MM1.s and U266, 16 hours
  pro-apoptotic signaling: promotes pro-apoptotic signaling
[1]; low-susceptible L363, 16 hours
  pro-apoptotic signaling: not
[2]; in vivo, po
  oral availability: orally available
[2]; intravenous administration, accumulated in tumor, rapidly cleared in blood stream
  pharmacokinetics (PK) profile: favorable
Topoisomerase I (Top1)
  concentration level for effects on Top1 activity: μM levels
[3]
  inhibition of expression of survivin, Mcl-1, XIAP and cIAP2: selectively inhibits
Primary MM cells; 10 nM FL118, BLISS model
  combination of FL118 with CAR T-cells, observed versus expected lysis: synergistic fashion
Primary MM cells; 10 nM FL118, E:T ratio 1:1, 24 hours
  patient MM cell lysis by CAR T-cells in the presence of BMMSCs: significantly enhanced
Primary MM cells; 10 nM, 24 hours, patient-derived MM cells
  anti-MM activity of FL118 alone: no/minimal anti-MM activity
Primary MM cells; 100 nM FL118, 10 μg/mL daratumumab, 24 hours
  BMMSC-mediated protection against daratumumab-induced MM cell lysis: abrogated
Primary MM cells; 100 nmol/L, 24 hours, 12 RR and 15 ND
  efficacy in RR patient samples compared to ND patient samples: significantly more effective
Primary MM cells; 100 nmol/L, 24 hours, in 15 of 27 patient samples
  FL118-induced MM cell lysis: ≥ 20%
Primary MM cells; observed versus expected lysis
  interaction between FL118 and daratumumab in the presence of BMMSCs: synergistic
Primary MM cells; [6]
  combination effect with bortezomib (Bliss model): additive effects
  combination effect with melphalan (Bliss model): synergistic effects
[4]
  hematopoietic and biochemical toxicities: very low
[5]; 60-80° C., spray-dry process, at least a period of time
  stability at high temperature: without any issues
[5]; before and/or after formulation, room temperature or 4° C.
  storage stability: highly stable
